Reference: article PMC9775310, “Anticancer, Antimicrobial, and Antioxidant Activities of Organodiselenide-Tethered Methyl Anthranilates” (Biomolecules, 2022)
Like-named read-outs stand apart in the source and are kept apart here.

Legend:
HepG2 cells = assay: MTT assay, antiproliferative activity, HepG2 liver carcinoma cells; assay type: cell-based; settings: Homo sapiens, read-out: HepG2 IC50
Procedure: (§1) The anticancer activity of the OSe was performed using the MTT assay against liver (HepG2) and breast (MCF-7) carcinoma cells, as well as normal WI-38 cells following the reported method. Experimental details can be found in the Supplementary Materials Section S1.
Accordingly, the anticancer properties of the OSe hybrids were assessed against two cancer cell lines, i.e., HepG2 and MCF-7 cells. Furthermore, their corresponding cytotoxicity was also estimated against the immortalized lung WI-38 fibroblasts employing the MTT assay. The Adriamycin cancer drug was used as the positive control. The concentration inhibition, 50%, needed to kill half of the cells (IC50) was estimated from (concentration-response plots) and tabulated in Table 1.
(§2) 1.1. The biological assays
(§3) 1.1.1. The anticancer activity
(§4) The breast adenocarcinoma (MCF-7), Hepatocellular carcinoma (HEPG-2), and normal fibroblast (WI-38) cells were obtained from ATCC via Holding company for biological products and vaccines (VACSERA), Cairo, Egypt. The reagents […] medium, MTT, DMSO, and fetal bovine serum was obtained from Sigma Aldrich. Dulbecco’s modified Eagle’s medium was used as the culture medium for the cells, and the cytotoxicity was evaluated using the reported MTT assay. Doxorubicin was used as the positive reference, and the IC50 values were obtained from the corresponding dose-response curve.
(§5) This colorimetric assay is based on converting the yellow tetrazolium bromide (MTT) to a purple formazan derivative by mitochondrial succinate dehydrogenase in viable cells. Cell lines were cultured in […] medium with 10% fetal bovine serum. Antibiotics added were 100 units/ml penicillin and 100µg/ml streptomycin at 37 C in a 5% Co2 incubator. The cell lines were seeded in a 96-well plate at a density of 1.0x10^4 cells/well. at 37 C for 48 h under 5% […]
Finally, dimethyl sulfoxide (DMSO) in the volume of 100 µl is added to each well to dissolve the purple formazan formed. The colorimetric assay is measured and recorded at an absorbance of 570 nm using a plate reader (EXL 800, USA). […]

Staphylococcus aureus [1] = assay: Agar well diffusion assay, S. aureus; assay type: cell-based; settings: ratio of inhibition zone to that of positive control
Procedure: (§6) According to the reported method, the OSe agents’ antimicrobial properties were estimated against Staphylococcus aureus (S. aureus), Escherichia coli (E. coli), and Candida albicans (C. albicans) microbial strains using the agar well diffusion assay. In addition, the MICs (in […]) were also recorded via the microdilution method following the reported procedure. Experimental details can be found in the Supplementary Materials Section S1 [16, 18].
(§7) The promising anticancer activities manifested by the OSe compounds encourage us to further evaluate their respective antimicrobial activity against a panel of gram-negative bacteria (e.g., E. coli) and the gram-positive bacteria (e.g., S. aureus) as well as a fungal strain (C. albicans) using the method of agar diffusion. The clotrimazole antifungal and the ampicillin antibacterial drugs were used as the positive controls. […]
(§8) 1.1.2. The antimicrobial activity
(§9) The antimicrobial activities of the OSe compounds were evaluated against C. albicans yeast as well as E. coli gram-negative and S. aureus gram-positive bacteria employing the agar well diffusion assay [ 4 ] .
(§10) Briefly, a concentration of 1 mM was prepared for each compound by dissolving in DMSO.
(§11) Paper discs of standard size […] were sterilized in an autoclave and soaked in 9 µL of the test compounds, and placed in the Petri dishes, which in turn contain a nutrient media (agar 9 g, peptone 5 g, and beef extract 3 g) seeded with the dedicated strain. Incubation lasted for 13 h at 36 0C. Experiments were replicated three times and the antifungal clotrimazole and antibiotic ampicillin were used as standards. The % activity index for the complex was determined and depicted in table 2. […]

Candida albicans [2] = assay: Agar well diffusion assay, C. albicans; assay type: cell-based; settings: read-out: C. Albicans ZID
Staphylococcus aureus [3] = assay: Agar well diffusion assay, S. aureus; assay type: cell-based; settings: read-out: S. aureus ZID
WI-38 cells = assay: MTT assay, cytotoxicity against normal WI-38 fibroblasts; assay type: cell-based; settings: Homo sapiens, WI-38, 24 h, read-out: WI38 IC50
Procedure: as §1
(§12) Accordingly, the anticancer properties of the OSe hybrids were assessed against two cancer cell lines, i.e., HepG2 and MCF-7 cells. Furthermore, their corresponding cytotoxicity was also estimated against the immortalized lung WI-38 fibroblasts employing the MTT assay. The Adriamycin cancer drug was used as the positive control.
as §2, §3, §4, §5
(§13) Finally, dimethyl sulfoxide (DMSO) in the volume of 100 µl is added to each well to dissolve the purple formazan formed. […]

Candida albicans [4] = assay: Agar well diffusion assay, C. albicans; assay type: cell-based; settings: ratio of inhibition zone to that of positive control
Procedure: as §6, §7, §8, §9, §10, §11

MCF-7 cells = assay: MTT assay, antiproliferative activity, MCF-7 breast carcinoma cells; assay type: cell-based; settings: Homo sapiens, MCF7, 24 h, read-out: MCF7 IC50
Procedure: as §1, §12, §2, §3, §4, §5, §13

Escherichia coli [5] = assay: Agar well diffusion assay, E. coli; assay type: cell-based; settings: ratio of inhibition zone to that of positive control
Procedure: as §6, §7, §8, §9, §10, §11

Escherichia coli [6] = assay: Agar well diffusion assay, E. coli; assay type: cell-based; settings: read-out: E. coli ZID
[7] = DPPH radical scavenging bioassay; settings: 200 µL, 1 mM in MeOH, DPPH 400 µL, 30 min, 517 nm
Description: The DPPH and ABTS in vitro bioassays were used to assess the OSe antioxidant activities following the reported method. Experimental details can be found in the Supplementary Materials Section S1.
The redox modulation activities of the OSe compounds were extensively explored over the last decade owing to their chemopreventive and antioxidant potency. The latter is usually investigated by the ABTS and DPPH in vitro tests employing vitamin C as the positive control. The OSe compound’s magnitude estimated the antioxidant potential to decolorize the distinctive colors of the DPPH^. and ABTS^. radicals at 517 nm and 734 nm, respectively (Figure 2).
Figure 2 The OSe compounds redox activities assessment using the ABTS and DPPH experiments. All tests are mean ± SD. ABTS experiment: absorbance was followed at 734 nm for OSe compounds (50 µL, 1 mM in MeOH) and ABTS solution (60 µL). DPPH experiment: Absorbance was monitored after 30 min at 517 nm for OSe compounds (200 µL, 1 mM in MeOH) and DPPH (400 µL). […]
1.1.3. The antioxidant activity
1.1.3.1. The DPPH bioassay
The hydrogen atom or electron donation ability of the corresponding compounds was measured by estimating the bleaching of the purple color of a methanolic solution of DPPH [5]. This spectrophotometric assay uses stable DPPH. reagent. The sample was prepared by adding […] of the OSe compounds (1 mM in methanol) to […] DPPH in methanol. After 30 min of incubation in the dark, the absorbance was read against a blank at […]. Ascorbic acid (vitamin C) and ebselen were used as standard antioxidants (positive control). A blank sample was run without DPPH. A negative control sample was run using methanol instead of the sample. The radical scavenging activity was […]
using the following equation:
Inhibition%= (Ablank-Asample)/(Ablank)*100. […]

Row | SMILES | IC50 (HepG2 cells; MTT, HepG2 cells, 24 h incubation) [µM] | S. aureus IA% (activity index) (Staphylococcus aureus [1]) [%] | zone of inhibition at 20 µM (Candida albicans [2]) [mm] | zone of inhibition at 20 µM (Staphylococcus aureus [3]) [mm] | IC50 (WI-38 cells) [µM] | C. Albicans IA% (activity index) (Candida albicans [4]) [%] | IC50 (HepG2 cells; HepG2, 24 h) [µM] | melting point [°C] | IC50 (MCF-7 cells) [µM] | E. coli IA% (activity index) (Escherichia coli [5]) [%] | zone of inhibition at 20 µM (Escherichia coli [6]) [mm] | DPPH radical scavenging activity [7] [%]
1 | COc1cccc2c1C(=O)c1c(O)c3c(c(O)c1C2=O)C[C@@](O)(C(=O)CO)C[C@@H]3O[C@H]1C[C@H](N)[C@H](O)[C@H](C)O1 [Adriamycin, reference compound] | 4.5 ± 0.2 |  |  |  |  |  |  |  |  |  |  | 
2 | COC(=O)c1cc([Se][Se]c2ccc(NC=O)c(C(=O)OC)c2)ccc1NC=O [Compound 7, dimethyl 5,5′-diselanediylbis(2-formamidobenzoate)] |  | 14.3 | 4 | 3 | 45.7 ± 2.7 | 16.7 | 83.7 ± 4.4 | 195 to 196 | 79 ± 4.2 |  |  | 
3 | COC(=O)c1cc([Se][Se]c2ccc(NC(C)=O)c(C(=O)OC)c2)ccc1NC(C)=O [Compound 8, dimethyl 5,5′-diselanediylbis(2-acetamidobenzoate)] |  |  |  |  | > 100 |  | > 100 | 186 to 187 | > 100 |  |  | 
4 | COC(=O)c1cc([Se][Se]c2ccc(NC(=O)CCl)c(C(=O)OC)c2)ccc1NC(=O)CCl [Compound 9, dimethyl 5,5′-diselanediylbis(2-(2-chloroacetamido) benzoate)] |  |  |  |  | > 100 |  | > 100 | 150 to 152 | > 100 |  |  | 
5 | COC(=O)c1cc([Se][Se]c2ccc(NC(=O)COc3ccccc3)c(C(=O)OC)c2)ccc1NC(=O)COc1ccccc1 [Compound 10, dimethyl 5,5′-diselanediylbis(2-(2-phenoxyacetamido) benzoate)] |  | 38.1 | 5 | 8 | 38.2 ± 2.5 | 20.8 | 81.5 ± 4.2 | 152 to 154 | 53.5 ± 3 | 21.7 | 5 | 
6 | COC(=O)c1cc([Se][Se]c2ccc(NC(=O)CCC(=O)O)c(C(=O)OC)c2)ccc1NC(=O)CCC(=O)O [Compound 11] |  | 33.3 | 10 | 7 | > 100 | 41.7 | 43.7 ± 2.6 | 150 to 152 | 55.1 ± 3.2 | 21.7 | 5 | 
7 | COC(=O)c1cc([Se][Se]c2ccc(N3C(=O)CCC3=O)c(C(=O)OC)c2)ccc1N1C(=O)CCC1=O [Compound 12, dimethyl 5,5′-diselanediylbis(2-(2,5-dioxopyrrolidin-1-yl) benzoate] |  |  |  |  | > 100 |  | > 100 | 100 | > 100 |  |  | 
8 | COC(=O)c1cc([Se][Se]c2ccc(NC(=O)/C=C\C(=O)O)c(C(=O)OC)c2)ccc1NC(=O)/C=C\C(=O)O [Compound 13, (2Z,2’Z)-4,4′-((diselanediylbis(2-(methoxycarbonyl)-4,1-phenylene))bis(azanediyl)) bis (4-oxobut-2-enoic acid)] |  | 19.0 | 5 | 4 | 47 ± 2.8 | 20.8 | 78.5 ± 3.9 | 149.5 to 151 | 76.2 ± 4 |  |  | 
9 | COC(=O)c1cc([Se]Cc2ccccc2)ccc1N [Compound 15, methyl 2-amino-5-(benzylselanyl) benzoate] |  | 85.7 | 22 | 18 | 25.8 ± 1.8 | 91.7 | 6.48 ± 0.4 | 78 | 12.8 ± 0.9 | 73.9 | 17 | 89
10 | COC(=O)c1cc([Se]CC(=O)Nc2ccccc2)ccc1N [Compound 16, methyl 2-amino-5-((2-oxo-2-(phenylamino)ethyl)selanyl) benzoate] |  | 42.8 | 13 | 9 | 71.9 ± 4.1 | 54.2 | 30.6 ± 2.4 | 126 to 128.5 | 50.8 ± 2.9 | 26.1 | 6 | 
